The values that follow come from ChEMBL document CHEMBL5465560, “Selectivity Literature for EUbOPEN Chemogenomic Library” (2024).

Where only a bound is given, the exact number is not on record here.

Experiment [1] has as its target T1, Histone-lysine N-methyltransferase SUV39H1 (Homo sapiens) (UniProt O43463).
T1 sequence (whole entry): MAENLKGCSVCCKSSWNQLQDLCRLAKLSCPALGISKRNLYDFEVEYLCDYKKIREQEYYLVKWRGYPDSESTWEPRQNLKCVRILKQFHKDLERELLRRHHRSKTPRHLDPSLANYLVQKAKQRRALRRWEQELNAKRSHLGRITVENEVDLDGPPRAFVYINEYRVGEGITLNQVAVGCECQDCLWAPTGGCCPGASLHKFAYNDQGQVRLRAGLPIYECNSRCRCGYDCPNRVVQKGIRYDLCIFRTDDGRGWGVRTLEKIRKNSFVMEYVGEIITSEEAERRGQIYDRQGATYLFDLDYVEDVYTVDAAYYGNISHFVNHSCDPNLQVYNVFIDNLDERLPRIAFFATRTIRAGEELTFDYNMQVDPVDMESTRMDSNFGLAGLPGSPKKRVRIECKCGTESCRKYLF
In words: Selectivity interaction (Methyltransferase screen (Scintillation proximity assays)) EUB0000255b SUV39H1. A general note: SPA uses beads or plates that emit light when radiolabelled molecules are held near them.

In experiment [2] the target is Histone-lysine N-methyltransferase 2A (Homo sapiens) (UniProt Q03164). In words: Selectivity interaction (Methyltransferase screen (Scintillation proximity assays)) EUB0000255b MLL.
Chain of Histone-lysine N-methyltransferase 2A (Homo sapiens) (Q03164 1-2718 limits assumed): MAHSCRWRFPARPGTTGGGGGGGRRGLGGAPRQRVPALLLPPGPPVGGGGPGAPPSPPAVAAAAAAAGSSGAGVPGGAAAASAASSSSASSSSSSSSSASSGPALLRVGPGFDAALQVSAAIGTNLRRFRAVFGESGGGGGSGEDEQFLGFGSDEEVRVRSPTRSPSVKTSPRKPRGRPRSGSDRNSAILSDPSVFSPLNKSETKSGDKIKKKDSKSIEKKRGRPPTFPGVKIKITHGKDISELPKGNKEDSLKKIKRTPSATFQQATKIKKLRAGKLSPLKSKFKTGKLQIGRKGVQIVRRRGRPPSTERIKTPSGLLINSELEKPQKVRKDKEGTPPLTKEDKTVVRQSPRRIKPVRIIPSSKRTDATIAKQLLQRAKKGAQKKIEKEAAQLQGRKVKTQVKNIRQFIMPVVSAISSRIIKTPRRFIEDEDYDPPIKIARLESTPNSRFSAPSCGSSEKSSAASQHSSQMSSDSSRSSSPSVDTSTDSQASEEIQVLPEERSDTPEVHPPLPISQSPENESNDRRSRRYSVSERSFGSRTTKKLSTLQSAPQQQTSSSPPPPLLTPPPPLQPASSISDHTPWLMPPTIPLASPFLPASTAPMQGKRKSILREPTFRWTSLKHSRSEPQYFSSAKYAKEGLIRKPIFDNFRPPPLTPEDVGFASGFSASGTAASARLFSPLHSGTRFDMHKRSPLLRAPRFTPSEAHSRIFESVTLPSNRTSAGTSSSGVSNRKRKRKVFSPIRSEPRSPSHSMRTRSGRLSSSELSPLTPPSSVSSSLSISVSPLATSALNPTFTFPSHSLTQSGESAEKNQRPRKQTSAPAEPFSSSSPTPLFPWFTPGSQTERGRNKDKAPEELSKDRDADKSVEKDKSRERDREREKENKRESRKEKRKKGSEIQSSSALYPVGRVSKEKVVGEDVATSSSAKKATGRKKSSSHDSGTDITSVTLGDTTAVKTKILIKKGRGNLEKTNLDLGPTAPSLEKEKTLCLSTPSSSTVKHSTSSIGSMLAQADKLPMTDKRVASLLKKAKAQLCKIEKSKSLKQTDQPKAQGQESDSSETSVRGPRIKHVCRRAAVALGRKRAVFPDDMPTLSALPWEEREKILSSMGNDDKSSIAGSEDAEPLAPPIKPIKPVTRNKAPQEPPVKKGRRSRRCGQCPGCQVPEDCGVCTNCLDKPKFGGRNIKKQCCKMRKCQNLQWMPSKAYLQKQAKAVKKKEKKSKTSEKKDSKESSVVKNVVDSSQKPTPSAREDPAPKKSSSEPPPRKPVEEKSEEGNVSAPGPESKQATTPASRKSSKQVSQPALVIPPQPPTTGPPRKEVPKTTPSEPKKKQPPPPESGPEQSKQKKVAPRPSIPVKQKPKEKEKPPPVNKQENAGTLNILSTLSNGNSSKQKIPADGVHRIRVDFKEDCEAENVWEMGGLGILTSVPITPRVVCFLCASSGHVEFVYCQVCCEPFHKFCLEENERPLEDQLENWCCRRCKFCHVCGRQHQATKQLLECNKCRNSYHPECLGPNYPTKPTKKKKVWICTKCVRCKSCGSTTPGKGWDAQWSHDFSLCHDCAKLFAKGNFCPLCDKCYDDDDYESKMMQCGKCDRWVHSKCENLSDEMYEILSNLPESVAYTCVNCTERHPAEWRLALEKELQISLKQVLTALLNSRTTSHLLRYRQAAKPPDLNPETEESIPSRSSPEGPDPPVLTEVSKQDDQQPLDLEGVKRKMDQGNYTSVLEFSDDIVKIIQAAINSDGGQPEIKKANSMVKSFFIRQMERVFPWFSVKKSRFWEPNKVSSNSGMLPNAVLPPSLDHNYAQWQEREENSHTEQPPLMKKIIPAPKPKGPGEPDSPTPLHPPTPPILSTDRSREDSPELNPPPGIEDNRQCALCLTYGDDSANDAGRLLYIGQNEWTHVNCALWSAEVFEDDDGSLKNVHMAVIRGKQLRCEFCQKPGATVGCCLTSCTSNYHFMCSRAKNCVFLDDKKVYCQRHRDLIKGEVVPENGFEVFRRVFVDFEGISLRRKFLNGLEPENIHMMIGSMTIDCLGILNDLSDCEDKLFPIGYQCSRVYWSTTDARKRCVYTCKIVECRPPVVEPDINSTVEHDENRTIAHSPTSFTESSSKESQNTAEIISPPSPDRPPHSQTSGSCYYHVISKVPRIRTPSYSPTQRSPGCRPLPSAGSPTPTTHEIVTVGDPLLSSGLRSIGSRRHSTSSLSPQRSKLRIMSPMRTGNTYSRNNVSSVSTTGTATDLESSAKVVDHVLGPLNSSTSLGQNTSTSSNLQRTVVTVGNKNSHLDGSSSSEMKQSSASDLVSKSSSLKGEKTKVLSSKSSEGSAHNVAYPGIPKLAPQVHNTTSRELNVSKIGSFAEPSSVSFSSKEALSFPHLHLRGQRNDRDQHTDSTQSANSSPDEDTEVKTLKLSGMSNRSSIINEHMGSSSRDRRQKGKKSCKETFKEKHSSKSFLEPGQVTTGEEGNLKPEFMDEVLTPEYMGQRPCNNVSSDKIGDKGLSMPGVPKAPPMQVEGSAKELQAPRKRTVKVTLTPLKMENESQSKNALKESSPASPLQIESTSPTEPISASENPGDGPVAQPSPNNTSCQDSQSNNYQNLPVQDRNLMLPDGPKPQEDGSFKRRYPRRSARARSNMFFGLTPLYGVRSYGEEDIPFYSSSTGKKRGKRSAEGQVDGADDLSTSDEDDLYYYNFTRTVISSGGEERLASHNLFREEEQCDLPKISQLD
Chain of Histone-lysine N-methyltransferase 2A (Homo sapiens) (Q03164 2719-3969 limits assumed): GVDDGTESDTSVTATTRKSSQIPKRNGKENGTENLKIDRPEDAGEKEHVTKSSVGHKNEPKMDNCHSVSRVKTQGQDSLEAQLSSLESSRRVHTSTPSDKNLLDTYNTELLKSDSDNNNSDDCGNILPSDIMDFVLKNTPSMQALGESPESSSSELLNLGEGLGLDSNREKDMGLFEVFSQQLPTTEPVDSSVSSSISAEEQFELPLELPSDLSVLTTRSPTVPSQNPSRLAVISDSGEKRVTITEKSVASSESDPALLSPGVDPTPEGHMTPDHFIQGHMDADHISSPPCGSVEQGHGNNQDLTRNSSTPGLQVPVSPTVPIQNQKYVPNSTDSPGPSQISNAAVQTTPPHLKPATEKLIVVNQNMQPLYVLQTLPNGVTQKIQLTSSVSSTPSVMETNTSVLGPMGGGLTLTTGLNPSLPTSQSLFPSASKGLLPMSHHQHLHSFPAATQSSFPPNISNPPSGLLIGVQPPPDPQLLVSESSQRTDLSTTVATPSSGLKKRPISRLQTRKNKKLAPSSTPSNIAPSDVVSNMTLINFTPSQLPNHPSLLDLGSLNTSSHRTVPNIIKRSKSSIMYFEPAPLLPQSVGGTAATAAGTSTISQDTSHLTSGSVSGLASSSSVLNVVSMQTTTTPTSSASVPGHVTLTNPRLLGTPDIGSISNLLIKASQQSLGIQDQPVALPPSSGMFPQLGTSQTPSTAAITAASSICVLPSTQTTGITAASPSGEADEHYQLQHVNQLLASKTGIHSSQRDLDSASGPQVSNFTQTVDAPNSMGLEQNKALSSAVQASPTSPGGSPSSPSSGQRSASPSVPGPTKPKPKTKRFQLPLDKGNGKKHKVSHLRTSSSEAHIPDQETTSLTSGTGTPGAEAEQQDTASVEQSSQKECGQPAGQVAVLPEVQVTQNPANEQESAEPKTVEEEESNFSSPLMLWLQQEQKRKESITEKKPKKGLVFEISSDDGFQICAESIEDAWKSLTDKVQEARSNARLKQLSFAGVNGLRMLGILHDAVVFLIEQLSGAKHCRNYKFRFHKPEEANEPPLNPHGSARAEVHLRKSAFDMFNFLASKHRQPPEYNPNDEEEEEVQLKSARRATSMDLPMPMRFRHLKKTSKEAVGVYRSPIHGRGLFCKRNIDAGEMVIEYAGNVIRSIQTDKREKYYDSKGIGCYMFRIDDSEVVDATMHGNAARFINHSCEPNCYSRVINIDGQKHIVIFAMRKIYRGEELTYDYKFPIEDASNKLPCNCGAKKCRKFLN
In experiment [3] the target is Serine/threonine-protein kinase/endoribonuclease IRE1 (Homo sapiens) (UniProt O75460). The experiment is described as follows: Selectivity interaction (KinomeScan (DiscoverX)) EUB0000595a ERN1. Conditions: at 10 µM.
For experiment [4], the target named is T2, 3-phosphoinositide-dependent protein kinase 1 (Homo sapiens) (UniProt O15530).
T2 sequence (whole entry): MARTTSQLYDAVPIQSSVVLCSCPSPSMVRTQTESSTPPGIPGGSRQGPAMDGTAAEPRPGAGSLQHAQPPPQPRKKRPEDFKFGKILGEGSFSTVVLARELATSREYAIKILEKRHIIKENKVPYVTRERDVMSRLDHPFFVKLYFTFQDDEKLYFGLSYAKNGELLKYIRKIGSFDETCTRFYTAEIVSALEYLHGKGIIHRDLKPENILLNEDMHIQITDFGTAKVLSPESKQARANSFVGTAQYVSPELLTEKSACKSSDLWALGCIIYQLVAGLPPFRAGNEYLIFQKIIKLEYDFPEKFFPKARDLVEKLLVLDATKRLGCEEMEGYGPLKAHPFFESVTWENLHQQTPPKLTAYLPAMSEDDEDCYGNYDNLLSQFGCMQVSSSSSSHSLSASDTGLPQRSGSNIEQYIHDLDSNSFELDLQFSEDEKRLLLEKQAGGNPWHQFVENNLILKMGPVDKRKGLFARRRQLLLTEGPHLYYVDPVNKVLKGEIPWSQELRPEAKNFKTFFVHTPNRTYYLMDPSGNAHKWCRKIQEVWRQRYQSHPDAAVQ
To be noted: at 10 µM.

Experiment [5] deals with T3, Ephrin type-B receptor 1 (Homo sapiens) (UniProt P54762).
T3 sequence (whole entry): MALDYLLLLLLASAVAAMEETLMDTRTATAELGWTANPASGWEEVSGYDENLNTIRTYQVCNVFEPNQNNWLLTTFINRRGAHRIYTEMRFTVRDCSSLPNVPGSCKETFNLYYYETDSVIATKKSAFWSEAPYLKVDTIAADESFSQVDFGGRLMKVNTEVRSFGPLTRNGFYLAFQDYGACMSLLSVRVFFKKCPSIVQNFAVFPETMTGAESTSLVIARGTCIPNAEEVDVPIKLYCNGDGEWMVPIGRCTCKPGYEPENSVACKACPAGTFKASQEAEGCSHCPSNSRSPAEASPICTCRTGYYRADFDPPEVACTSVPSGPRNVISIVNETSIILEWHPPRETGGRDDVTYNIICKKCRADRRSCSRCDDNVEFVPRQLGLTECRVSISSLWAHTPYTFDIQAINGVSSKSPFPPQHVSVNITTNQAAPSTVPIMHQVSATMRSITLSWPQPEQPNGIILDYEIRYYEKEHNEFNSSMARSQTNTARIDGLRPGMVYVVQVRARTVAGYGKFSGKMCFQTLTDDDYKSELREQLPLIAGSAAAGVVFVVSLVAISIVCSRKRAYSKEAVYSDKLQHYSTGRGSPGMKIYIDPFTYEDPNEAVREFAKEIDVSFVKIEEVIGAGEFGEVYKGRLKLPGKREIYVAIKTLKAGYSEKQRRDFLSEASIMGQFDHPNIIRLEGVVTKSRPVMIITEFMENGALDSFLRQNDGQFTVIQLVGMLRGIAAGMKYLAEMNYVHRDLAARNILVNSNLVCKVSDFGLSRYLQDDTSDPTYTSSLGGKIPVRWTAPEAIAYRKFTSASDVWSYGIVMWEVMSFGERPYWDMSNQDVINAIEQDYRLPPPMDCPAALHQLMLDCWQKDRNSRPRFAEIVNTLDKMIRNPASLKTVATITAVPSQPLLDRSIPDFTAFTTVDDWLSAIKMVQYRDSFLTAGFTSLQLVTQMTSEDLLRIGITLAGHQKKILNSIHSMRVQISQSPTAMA
The experiment is described as follows: Selectivity interaction (KinomeScan (DiscoverX)) EUB0000666a EPHB1. Conditions: at 10 µM.

Experiment [6] addresses T2, 3-phosphoinositide-dependent protein kinase 1 (Homo sapiens). The experiment is described as follows: Selectivity interaction (KinomeScan (DiscoverX)) EUB0000666a PDPK1. Conditions: at 10 µM.
The target of experiment [7] is Glycogen synthase kinase-3 alpha (Homo sapiens, UniProt P49840). The experiment is described as follows: Selectivity interaction (Kinase panel (Invitrogen)) EUB0000639a GSK3A. Conditions: at 200 nM.
Experiment [8] addresses Mitogen-activated protein kinase kinase kinase 11 (Homo sapiens) (UniProt Q16584). The experiment is described as follows: Selectivity interaction (ProQinase) EUB0000171b MAP3K11.
The target of experiment [9] is Calcium/calmodulin-dependent protein kinase type II subunit beta (Homo sapiens) (UniProt Q13554). In words: Selectivity interaction (Ambit KINOMEscan and KiNATiv profiling in Jurkat cells) EUB0000090b CAMK2B. Type of experiment: cell-based. Conditions: at 1 µM.

Chain of Mitogen-activated protein kinase kinase kinase 11 (Homo sapiens) (Q16584 whole entry, looked up): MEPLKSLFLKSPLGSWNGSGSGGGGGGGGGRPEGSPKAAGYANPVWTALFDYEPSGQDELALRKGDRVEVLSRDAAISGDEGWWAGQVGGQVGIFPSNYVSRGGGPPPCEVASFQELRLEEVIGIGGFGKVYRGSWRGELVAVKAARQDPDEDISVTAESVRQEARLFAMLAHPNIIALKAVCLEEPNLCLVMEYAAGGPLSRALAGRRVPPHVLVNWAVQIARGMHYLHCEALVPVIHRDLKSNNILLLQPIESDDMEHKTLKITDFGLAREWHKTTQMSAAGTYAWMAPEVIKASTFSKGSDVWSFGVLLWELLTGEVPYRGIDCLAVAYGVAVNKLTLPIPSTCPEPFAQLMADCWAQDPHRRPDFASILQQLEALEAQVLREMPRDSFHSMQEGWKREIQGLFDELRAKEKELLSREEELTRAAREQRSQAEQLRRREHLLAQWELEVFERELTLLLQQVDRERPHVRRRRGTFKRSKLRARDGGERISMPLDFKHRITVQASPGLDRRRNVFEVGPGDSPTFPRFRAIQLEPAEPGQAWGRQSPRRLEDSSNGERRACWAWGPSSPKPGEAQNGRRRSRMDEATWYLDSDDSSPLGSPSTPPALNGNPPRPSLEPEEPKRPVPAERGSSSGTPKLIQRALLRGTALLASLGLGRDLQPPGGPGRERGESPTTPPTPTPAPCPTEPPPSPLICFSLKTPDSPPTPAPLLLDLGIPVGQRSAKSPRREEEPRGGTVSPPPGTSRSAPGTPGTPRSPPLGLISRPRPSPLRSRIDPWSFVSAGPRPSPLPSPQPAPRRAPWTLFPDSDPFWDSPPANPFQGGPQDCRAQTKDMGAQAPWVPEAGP

Take `COCCN1CCC(c2cc(CN(C)C(=O)c3cccc(Oc4ccccc4)c3)ccn2)CC1`: the % activity was greater than 95% in [1] (at 1 µM), greater than 90% in experiment [1] (at 10 µM), greater than 95% in [2] (at 1 µM) and greater than 90% in experiment [2] (at 10 µM).

`COCC(=O)NC/C=C/c1ccc2ncnc(Nc3ccc(Oc4ccc(C)nc4)c(C)c3)c2c1` [CP-724714]: the results for the % of control in experiment [3] and in [4] were 82% and 100%, respectively.

For the compound `O=C(NOC[C@H](O)CO)c1ccc(F)c(F)c1Nc1ccc(I)cc1F`, the % of control in experiment [5] was found to be 100%; in experiment [6], 71%.

Regarding `CC[C@@H]1[C@H](F)C(=O)N[C@@H]1COc1nccc2cc(C(N)=O)c(OC)cc12` [ZIMLOVISERTIB], in experiment [7], the % of inhibition turned out to be 7.43%.

With `C=CC(=O)Nc1cccc(C(=O)Nc2ccc(Nc3cc(-c4[nH]c(SC)nc4C)ccn3)cc2)c1`, the values for the % of control in experiment [8] (at 1 µM) and in experiment [8] (at 5 µM) were 28% and 13%, respectively.

In the case of `CN(C)C/C=C/C(=O)Nc1ccc(C(=O)N2CCCC(Nc3ncc(Cl)c(-c4c[nH]c5ccccc45)n3)C2)cc1` (configuration not stated), the % of control in experiment [9] was found to be 94%.
